From patent publication US12181473B2 (priority 2017, dated 2024)

Test system: fumonisin B1 monoclonal antibody secreted from the hybridoma cell line Fm7A11
Format: binding, BALB/c mice

SMILES	sensitivity (IC50, concentration of competitive antigen at 50% suppression ratio) [ng/mL]	Cross rates of response [%]
CCCC[C@@H](C)[C@@H](OC(=O)C[C@@H](CC(=O)O)C(=O)O)[C@H](C[C@@H](C)C[C@H](O)CCCC[C@@H](O)C[C@H](O)[C@H](C)N)OC(=O)C[C@@H](CC(=O)O)C(=O)O [fumonisin B1]	0.32	–
CCCC[C@@H](C)[C@@H](OC(=O)C[C@@H](CC(=O)O)C(=O)O)[C@H](C[C@@H](C)CCCCCC[C@@H](O)C[C@H](O)[C@H](C)N)OC(=O)C[C@@H](CC(=O)O)C(=O)O [fumonisin B2]	–	4.3
CCCC[C@@H](C)[C@@H](OC(=O)C[C@@H](CC(=O)O)C(=O)O)[C@H](C[C@@H](C)C[C@H](O)CCCCCC[C@H](O)[C@H](C)N)OC(=O)C[C@@H](CC(=O)O)C(=O)O [fumonisin B3]	–	12.8
